In patent US4122078A, “Antigens and antibodies of catecholamines” (priority 1975, dated 1978):

How the values were obtained:
[1] = system: epinephrine antibodies (γ-globulin fraction obtained in Example 2); assay: Equilibrium dialysis method, specificity of the epinephrine antibodies; set-up: species or system rabbit; conditions: binding of 3H-DL-epinephrine (10μl of 3.4×10^-5 M) with 10μl of 3.4×10^-3 M compound; antibody 5.5 × 10^-6 M; 25° C; 100 = no compound
Procedure: The γ-globulin fraction obtained in Example 2 was dialyzed against the phosphate buffered saline and a solution of the final concentration of 0.94mg/ml was performed prepared. The γ-globulin solution was used as the antibody solution in this method. To the phosphate buffered saline used in this procedure, 0.01% of sodium metabisufite(Na2 S2 O5) and 0.015% ethylenediaminetetraacetic acid disodium salt were added.
An equilibrium dialysis apparatus of 2ml capacity was used and 500μl of the antibody solution was poured into one of a pair cell(cell A) and into another cell(cell B), 10μl of the phosphate buffered saline solution of DL-epinephrine labelled with tritium(^3 H) in a concentration of 3.4×10^-5 M and 490μl of phosphate buffered saline were introduced. They were shaked at 25° C to reach equilibrium and then radioactivity of each solution were counted. The difference of each counts was calculated and made as the standard.
Then, 500μl of γ-globulin solution was put in cell A, and in cell B were introduced 10μl of a solution of the concentration of 3.4×10^-3 M of epinephrine or one of other catecholamine or analogue compounds, 10μl of a phosphate buffered saline solution of ^3 H-epinephrine (3.4×10^-5 M) and 480μl of phosphate buffered saline. The solutions were shaked by the same manner as above and after equilibrium, the radioactivity of each solution were counted. The difference was calculated and the relative bindings were calculated from the standard.

[2] = system: antiserum to epinephrine-BSA; assay: Ouchterlony method, specificity of antiserum to epinephrine-BSA; type: binding, rabbit; set-up: key: the degree of the precipitate formation were indicated by the signs of +++, ++,+-, and -, in turn; the degree of the precipitate formation were indicated by the signs of +++, ++,+-, and -, in turn; the degree of the precipitate formation were indicated by the signs of +++, ++,+-, and -, in turn; the degree of the precipitate formation were indicated by the signs of +++, ++,+-, and -, in turn; conditions: antigen 1mg/ml; antiserum after removal of antibodies to carrier material
Procedure: (§1) Agar was dissolved in phosphate buffered saline with warming to yield a final concentration of 1.2% and the solution was spread 2 mm in thickness on a glass plate. After cooling, 7 holes of 2mm diameter were made on the center and corners of a true hexagon with 5 mm side. In the center hole, the antiserum obtained above or diluted thereof to 1/2-1/3 with the phosphate buffered saline was filled. In the corner holes, the phosphate buffered saline solution of the conjugate (0.5-1.0mg/ml) and BSA were filled alternately. […] Therefore, an equal volume of BSA solution (1mg/ml) was added to the antiserum and the mixture was allowed to stand at 37° C for 1 hour, then at 4° C overnight. The resulted precipitates were removed by centrifuging. […] This antiserum was then dialyzed with 6M urea solution for 15 hours followed with phosphate buffer (0.007M NaH2 PO4,pH 6.3) for 2 days. The resulting solution was passed through a DEAE-cellulose column and the first fraction (gamma globulin fraction,γG-fraction) was collected with examining the absorbance at 280nm. […] The γG-fraction was dialyzed with water and lyophilized for the stock.
Epinephrine specific antiserum was produced and γG-fraction was obtained by the same manner as in Example 1 using the phosphate buffered saline solution of the conjugate and complete Freund's adjuvant. […]

[3] = system: antiserum to dopamine-BSA; assay: Ouchterlony method, specificity of antiserum to dopamine-BSA; type: binding, rabbit; set-up: key: the degree of the precipitate formation were indicated by the signs of +++, ++,+-, and -, in turn; the degree of the precipitate formation were indicated by the signs of +++, ++,+-, and -, in turn; the degree of the precipitate formation were indicated by the signs of +++, ++,+-, and -, in turn; the degree of the precipitate formation were indicated by the signs of +++, ++,+-, and -, in turn; conditions: antigen 1mg/ml; antiserum after removal of antibodies to carrier material
Procedure: as §1
According to the same manner as in Example 1, the dopamine specific antibody and γG-fraction thereof was obtained.
(§2) The specificity of antisera to the antigens was examined by the Ouchterlony method. […]

[4] = system: antiserum to L-dopa-BSA; assay: Ouchterlony method, specificity of antiserum to L-dopa-BSA; type: binding, rabbit; set-up: key: the degree of the precipitate formation were indicated by the signs of +++, ++,+-, and -, in turn; the degree of the precipitate formation were indicated by the signs of +++, ++,+-, and -, in turn; the degree of the precipitate formation were indicated by the signs of +++, ++,+-, and -, in turn; the degree of the precipitate formation were indicated by the signs of +++, ++,+-, and -, in turn; conditions: antigen 1mg/ml; antiserum after removal of antibodies to carrier material
Procedure: The phosphate buffered saline solution of the conjugate was mixed with an equal volume of complete Freund's adjuvant to prepare a w/o type emulsion. The emulsion was intradermally injected to rabbit foot pads in the amount of 2-3mg of the antigen. After four weeks, phosphate buffered saline solution of the conjugate (1mg) was injected into the marginal vein of the rabbit ear. (This operation can be replaced by injecting subcutaneously the w/o emulsion of phosphate buffered saline solution of the conjugate (1mg) and incomplete Freund's adjuvant). One week after the booster injection, the rabbit were bled and the antisera were obtained.
Agar was dissolved in phosphate buffered saline with warming to yield a final concentration of 1.2% and the solution was spread 2 mm in thickness on a glass plate. After cooling, 7 holes of 2mm diameter were made on the center and corners of a true hexagon with 5 mm side. In the center hole, the antiserum obtained above or diluted thereof to 1/2-1/3 with the phosphate buffered saline was filled. […] Therefore, an equal volume of BSA solution (1mg/ml) was added to the antiserum and the mixture was allowed to stand at 37° C for 1 hour, then at 4° C overnight. […] The resulting solution was passed through a DEAE-cellulose column and the first fraction (gamma globulin fraction,γG-fraction) was collected with examining the absorbance at 280nm. […]

[5] = system: antiserum to norepinephrine; assay: Ouchterlony method, specificity of antiserum to norepinephrine; type: binding, rabbit; set-up: key: the degree of the precipitate formation were indicated by the signs of +++, ++,+-, and -, in turn; the degree of the precipitate formation were indicated by the signs of +++, ++,+-, and -, in turn; the degree of the precipitate formation were indicated by the signs of +++, ++,+-, and -, in turn; the degree of the precipitate formation were indicated by the signs of +++, ++,+-, and -, in turn; conditions: antigen 1mg/ml; antiserum after removal of antibodies to carrier material
Procedure: as §1
By the same manner as in Example 1, the antiserum of norepinephrine was produced and after removing the BSA-antibody, the γ-globuline fraction was obtained.
as §2

| Compound | relative binding (%) [1] | also measured |
| --- | --- | --- |
| CNCC(O)c1ccc(O)c(OC)c1 (racemic) [DL-methanephrine] | 81.7% | – |
| COc1cc(C(O)CN)ccc1O (racemic) [DL-normetanephrine] | 97.2% | – |
| O=C(O)Cc1ccc(O)c(O)c1 [3,4-dihydroxyphenylacetic acid] | 83.8% | – |
| COc1cc(CC(=O)O)ccc1O [4-hydroxy-3-methoxyphenylacetic acid] | 91.7% | – |
| N[C@@H](Cc1ccc(O)c(O)c1)C(=O)O [L-dopa] | 90.7% | – |
| CNC[C@H](O)c1ccc(O)c(O)c1 [L-epinephrine] | 0% | – |
| CC(C)NC[C@H](O)c1ccc(O)c(O)c1 [L-isoproterenol] | 72.9% | – |
| NC[C@H](O)c1ccc(O)c(O)c1 [L-norepinephrine] | 54.8% | – |
| NCCc1ccc(O)c(O)c1 [dopamine] | 88.0% | – |
| norepinephrine-BSA: 20-30 moles of norepinephrine conjugated to one mole of BSA | – | degree of the precipitate formation, antiserum to epinephrine-BSA [2]: +-; degree of the precipitate formation, antiserum to dopamine-BSA [3]: +-; degree of the precipitate formation, antiserum to L-dopa-BSA [4]: +-; degree of the precipitate formation, antiserum to norepinephrine [5]: ++ |
